This is an account of results in patent publication US20160237067A1, “SUBSTITUTED PHENYLALANINE DERIVATIVES” (BAYER PHARMA AKTIENGESELLSCHAFT, priority 2013, published 2016).

Where a name gives a salt, the structure may show the parent alone.

The test system of assay [1] is human and animal plasma. As to the kind of experiment: Determination of anticoagulatory activity: activated partial thromboplastin time (aPTT) in plasma. The format is biochemical. The note with it: C.K. Prest kit, 37° C., 3 minutes incubation, plasma species of Table B not stated. The protocol:
The anticoagulatory activity of the test substances is determined in vitro in human and animal plasma (for example mouse, rat, rabbit, pig and dog plasma). To this end, blood is drawn off in a mixing ratio of sodium citrate/blood of 1:9 using a 0.11 molar sodium citrate solution as receiver. Immediately after the blood has been drawn off, it is mixed thoroughly and centrifuged at about 4000 g for 15 minutes. The supernatant is pipetted off.
The activated partial thromboplastin time (aPTT) is determined in the presence of varying concentrations of test substance or the corresponding solvent using a commercial test kit (C.K. Prest from Diagnostica Stago). The test compounds are incubated with the plasma and the PTT reagent (cephalin, kaolin) at 37° C. for 3 minutes. Coagulation is then started by addition of a 25 mM aqueous calcium chloride solution, and the time when coagulation occurs is determined. The concentration of test substance which brings about a 1.5-fold extension of the aPTT is determined Activity data from this test are listed in Table B below: […]

In assay [2] the target is T1, human factor XIa (Homo sapiens, UniProt P03951).
T1 construct: purchased Kordia
T1 sequence (P03951 388-625 limits assumed): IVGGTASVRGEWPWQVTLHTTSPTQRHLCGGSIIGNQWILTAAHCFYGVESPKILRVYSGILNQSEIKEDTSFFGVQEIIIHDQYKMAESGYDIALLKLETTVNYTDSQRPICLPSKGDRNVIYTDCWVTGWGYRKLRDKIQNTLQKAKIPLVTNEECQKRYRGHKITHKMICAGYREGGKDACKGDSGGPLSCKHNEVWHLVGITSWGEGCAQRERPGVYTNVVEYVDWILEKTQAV
T1 sequence (P03951 19-387 partner limits assumed): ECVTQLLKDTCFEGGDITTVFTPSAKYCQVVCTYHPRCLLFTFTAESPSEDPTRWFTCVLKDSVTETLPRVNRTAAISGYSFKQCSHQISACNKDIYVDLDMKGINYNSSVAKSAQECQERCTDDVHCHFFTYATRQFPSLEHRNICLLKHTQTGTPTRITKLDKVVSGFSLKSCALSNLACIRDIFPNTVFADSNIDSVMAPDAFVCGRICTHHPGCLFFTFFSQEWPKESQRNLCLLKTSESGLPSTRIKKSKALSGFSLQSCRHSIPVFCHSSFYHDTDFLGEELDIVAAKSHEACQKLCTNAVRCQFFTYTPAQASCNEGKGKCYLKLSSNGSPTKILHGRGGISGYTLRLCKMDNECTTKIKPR
As to the kind of experiment: Measurement of FXIa inhibition (fluorogenic peptide substrate Boc-Glu(OBzl)-Ala-Arg-AMC). The note with it: factor XIa from Kordia 0.45 nM; 15 min preincubation; 30 min at 22° C. The format is biochemical. The protocol: The factor XIa inhibition of the substances according to the invention is determined using a biochemical test system which utilizes the reaction of a peptidic factor XIa substrate to determine the enzymatic activity of human factor XIa. Here, factor XIa cleaves from the peptic factor XIa substrate the C-terminal aminomethylcoumarin (AMC), the fluorescence of which is measured. The determinations are carried out in microtitre plates.
Test substances are dissolved in dimethyl sulphoxide and serially diluted in dimethyl sulphoxide (3000 μM to 0.0078 μM; resulting final concentrations in the test: 50 μM to 0.00013 μM). In each case 1 μl of the diluted substance solutions is placed into the wells of white microtitre plates from Greiner (384 wells). Subsequently, the following are added successively: 20 μl of assay buffer (50 mmol/l Tris buffer pH 7.4; 100 mmol/l sodium chloride; 5 mmol/l calcium chloride; 0.1% bovine serum albumin) and 20 μl of factor XIa from Kordia (0.45 nM in assay buffer). After 15 min of incubation, the enzyme reaction is started by addition of 20 μl of the factor XIa substrate Boc-Glu(OBzl)-Ala-Arg-AMC dissolved in assay buffer (10 μM in assay buffer) from Bachem, the mixture is incubated at room temperature (22° C.) for 30 min and fluorescence is then measured (excitation: 360 nm, emission: 460 nm). The measured emissions of the test batches with test substance are compared to those of control batches without test substance (only dimethyl sulphoxide instead of test substance in dimethyl sulphoxide), and IC50 values are calculated from the concentration/activity relationships.

Regarding `NC[C@H]1CC[C@H](C(=O)N[C@@H](Cc2ccc(-c3cccc(C(=O)NC4CCNCC4)c3)cc2)C(=O)Nc2ccc(-c3nn[nH]n3)cc2)CC1` [Example 13, 4′-[(2S)-2-({[trans-4-(Aminomethyl)cyclohexyl]carbonyl}amino)-3-oxo-3-{[4-(2H-tetrazol-5-yl)phenyl]amino}propyl]-N-(piperidin-4-yl)biphenyl-3-carboxamide hydrochloride], the “aPTT (concentration of test substance which brings about a 1.5-fold extension of the aPTT)” value in assay [1] was 0.28 µmol/L. Also, inhibition in assay [2] was half-maximal at 17 nM (IC50).
Taken in the same sequence, the figures for `CCN(CC)CCNC(=O)c1cccc(-c2ccc(C[C@H](NC(=O)[C@H]3CC[C@H](CN)CC3)C(=O)Nc3ccc(-c4nn[nH]n4)cc3)cc2)c1` [Example 14, 4′-[(2S)-2-({[trans-4-(Aminomethyl)cyclohexyl]carbonyl}amino)-3-oxo-3-{[4-(2H-tetrazol-5-yl)phenyl]amino}propyl]-N-[2-(diethylamino)ethyl]biphenyl-3-carboxamide hydrochloride] were 0.35 µmol/L and 15 nM.
Consider `NC[C@H]1CC[C@H](C(=O)N[C@@H](Cc2ccc(-c3cccc(C(=O)NC4CCNCC4)c3F)cc2)C(=O)Nc2ccc(-c3nn[nH]n3)cc2)CC1` [Example 15, 4′-[(2S)-2-({[trans-4-(Aminomethyl)cyclohexyl]carbonyl}amino)-3-oxo-3-{[4-(2H-tetrazol-5-yl)phenyl]amino}propyl]-2-fluoro-N-(piperidin-4-yl)biphenyl-3-carboxamide hydrochloride], for which the “aPTT (concentration of test substance which brings about a 1.5-fold extension of the aPTT)” value in assay [1] was determined as 0.52 µmol/L. Besides, the IC50 in assay [2] is 10 nM.
Turning to `CCN(CC)CCNC(=O)c1cccc(-c2ccc(C[C@H](NC(=O)[C@H]3CC[C@H](CN)CC3)C(=O)Nc3ccc(-c4nn[nH]n4)cc3)cc2)c1F` [Example 16, 4′-[(2S)-2-({[trans-4-(Aminomethyl)cyclohexyl]carbonyl}amino)-3-oxo-3-{[4-(2H-tetrazol-5-yl)phenyl]amino}propyl]-N-[2-(diethylamino)ethyl]-2-fluorobiphenyl-3-carboxamide hydrochloride], the “aPTT (concentration of test substance which brings about a 1.5-fold extension of the aPTT)” value in assay [1] is 0.2 µmol/L. The same molecule displayed a half-maximal inhibitory concentration (IC50) in assay [2] of 9 nM.
For the molecule `NC[C@H]1CC[C@H](C(=O)N[C@@H](Cc2ccc(-c3cccc(C(=O)N[C@@H]4CCNC4)c3F)cc2)C(=O)Nc2ccc(-c3nn[nH]n3)cc2)CC1` [Example 17, 4′-[(2S)-2-({[trans-4-(Aminomethyl)cyclohexyl]carbonyl}amino)-3-oxo-3-{[4-(2H-tetrazol-5-yl)phenyl]amino}propyl]-2-fluoro-N-[(3R)-pyrrolidin-3-yl]biphenyl-3-carboxamide hydrochloride], the “aPTT (concentration of test substance which brings about a 1.5-fold extension of the aPTT)” value in assay [1] was determined as 0.58 µmol/L. The molecule also came in with an IC50 in assay [2] of 9.3 nM.
As to `NC[C@H]1CC[C@H](C(=O)N[C@@H](Cc2ccc(-c3cccc(C(=O)N4CCNCC4)c3F)cc2)C(=O)Nc2ccc(-c3nn[nH]n3)cc2)CC1` [Example 18, trans-4-(Aminomethyl)-N-[(2S)-3-[2′-fluoro-3′-(piperazin-1-ylcarbonyl)biphenyl-4-yl]-1-oxo-1-{[4-(2H-tetrazol-5-yl)phenyl]amino}propan-2-yl]cyclohexanecarboxamide hydrochloride], the “aPTT (concentration of test substance which brings about a 1.5-fold extension of the aPTT)” value in assay [1] was 0.35 µmol/L. In assay [2], this molecule registered an IC50 of 16 nM.
As for `CCN(CC)CCCNC(=O)c1ccc(C)c(-c2ccc(C[C@H](NC(=O)[C@H]3CC[C@H](CN)CC3)C(=O)Nc3ccc(-c4nn[nH]n4)cc3)cc2)c1` [Example 19, 4′-[(2S)-2-({[trans-4-(Aminomethyl)cyclohexyl]carbonyl}amino)-3-oxo-3-{[4-(2H-tetrazol-5-yl)phenyl]amino}propyl]-N-[3-(diethylamino)propyl]-6-methylbiphenyl-3-carboxamide hydrochloride], the “aPTT (concentration of test substance which brings about a 1.5-fold extension of the aPTT)” value in assay [1] was determined as 0.26 µmol/L. For the same molecule, the IC50 in assay [2] worked out at 6.4 nM.
